Reference: ChEMBL document CHEMBL5214923, “Contemporary mTOR inhibitor scaffolds to diseases breakdown: A patent review (2015-2021)” (Eur J Med Chem, 2022)

Experiments:
mTORC1 [1] = biological target: T1, mTORC1 (Homo sapiens, UniProt P42345+Q8N122+Q9BVC4); assay: Inhibition of mTORC1 in human PC-3 cells assessed as measuring phosphorylated S6K level incubated for 24 hrs by AlphaLISA assay; format: cell-based
mTORC2 [2] = biological target: T2, mTORC2 (Homo sapiens, UniProt P42345+Q6R327+Q9BPZ7+Q9BVC4); assay: Inhibition of mTORC2 in human PC-3 cells assessed as measuring phosphorylated Akt level incubated for 24 hrs by AlphaLISA assay; format: cell-based
mTORC1 [3] = biological target: T1, mTORC1; assay: Inhibition of mTORC1 (unknown origin); format: protein-complex assay
[4] = biological target: T3, Phosphatidylinositol 4,5-bisphosphate 3-kinase catalytic subunit delta isoform (Homo sapiens, UniProt O00329); assay: Inhibition of human PI3Kdelta preincubated for 15 mins followed by ATP addition measured after 1 hr by TR-FRET assay
T3 sequence (O00329 whole entry): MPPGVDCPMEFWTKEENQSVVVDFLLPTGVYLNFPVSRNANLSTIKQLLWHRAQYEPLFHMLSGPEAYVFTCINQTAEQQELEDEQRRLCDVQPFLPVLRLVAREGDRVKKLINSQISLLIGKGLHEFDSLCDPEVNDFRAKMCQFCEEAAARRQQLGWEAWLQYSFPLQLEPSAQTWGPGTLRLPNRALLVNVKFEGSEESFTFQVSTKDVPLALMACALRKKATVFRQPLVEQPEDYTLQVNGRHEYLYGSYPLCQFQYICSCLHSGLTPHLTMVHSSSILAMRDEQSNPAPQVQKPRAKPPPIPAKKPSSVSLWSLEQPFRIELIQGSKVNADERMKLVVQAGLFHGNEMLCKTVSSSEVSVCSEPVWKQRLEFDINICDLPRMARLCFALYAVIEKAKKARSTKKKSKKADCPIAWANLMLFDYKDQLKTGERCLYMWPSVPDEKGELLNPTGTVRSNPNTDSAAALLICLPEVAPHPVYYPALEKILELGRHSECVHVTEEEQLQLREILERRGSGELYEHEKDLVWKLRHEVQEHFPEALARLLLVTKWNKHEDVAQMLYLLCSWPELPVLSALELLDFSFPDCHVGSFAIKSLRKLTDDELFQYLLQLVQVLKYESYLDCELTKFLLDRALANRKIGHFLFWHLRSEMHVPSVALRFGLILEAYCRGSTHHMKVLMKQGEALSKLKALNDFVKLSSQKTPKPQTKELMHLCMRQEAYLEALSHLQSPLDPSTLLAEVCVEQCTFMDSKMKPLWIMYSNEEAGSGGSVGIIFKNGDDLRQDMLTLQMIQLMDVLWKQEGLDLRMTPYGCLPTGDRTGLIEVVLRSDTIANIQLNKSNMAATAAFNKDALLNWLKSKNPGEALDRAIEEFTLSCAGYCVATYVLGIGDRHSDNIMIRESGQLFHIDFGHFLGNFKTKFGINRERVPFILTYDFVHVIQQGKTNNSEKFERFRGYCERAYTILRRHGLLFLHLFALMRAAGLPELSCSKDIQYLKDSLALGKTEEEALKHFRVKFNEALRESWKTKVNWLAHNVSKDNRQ

[5] = biological target: PI3-kinase p110-alpha/p85-alpha (Homo sapiens, UniProt P42336); assay: Inhibition of PI3K p110alpha/p85alpha (unknown origin) using PIP2 as substrate preincubated for 15 mins followed by substrate addition measured after 1 hr in presence of ATP by TR-FRET assay; format: protein-complex assay
Sequence of PI3-kinase p110-alpha/p85-alpha (P27986 whole entry): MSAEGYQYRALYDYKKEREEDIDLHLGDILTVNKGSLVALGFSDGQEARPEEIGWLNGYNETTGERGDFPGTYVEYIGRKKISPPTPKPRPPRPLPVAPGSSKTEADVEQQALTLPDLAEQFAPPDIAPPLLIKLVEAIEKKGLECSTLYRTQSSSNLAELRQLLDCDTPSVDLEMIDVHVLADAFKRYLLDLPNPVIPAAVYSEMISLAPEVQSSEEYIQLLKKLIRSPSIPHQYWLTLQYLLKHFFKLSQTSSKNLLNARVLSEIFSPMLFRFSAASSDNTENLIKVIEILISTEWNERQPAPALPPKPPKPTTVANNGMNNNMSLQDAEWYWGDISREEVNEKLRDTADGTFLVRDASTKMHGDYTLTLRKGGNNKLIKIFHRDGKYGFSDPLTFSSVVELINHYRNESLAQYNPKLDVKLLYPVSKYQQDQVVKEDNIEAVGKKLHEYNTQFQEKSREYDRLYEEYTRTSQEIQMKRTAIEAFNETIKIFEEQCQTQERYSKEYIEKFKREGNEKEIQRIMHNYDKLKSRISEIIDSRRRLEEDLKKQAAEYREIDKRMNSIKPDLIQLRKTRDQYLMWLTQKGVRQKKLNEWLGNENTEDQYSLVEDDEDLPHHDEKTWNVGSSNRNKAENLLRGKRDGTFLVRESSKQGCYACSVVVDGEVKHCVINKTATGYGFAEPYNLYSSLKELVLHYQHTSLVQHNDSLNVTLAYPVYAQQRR
Sequence of PI3-kinase p110-alpha/p85-alpha (P42336 whole entry): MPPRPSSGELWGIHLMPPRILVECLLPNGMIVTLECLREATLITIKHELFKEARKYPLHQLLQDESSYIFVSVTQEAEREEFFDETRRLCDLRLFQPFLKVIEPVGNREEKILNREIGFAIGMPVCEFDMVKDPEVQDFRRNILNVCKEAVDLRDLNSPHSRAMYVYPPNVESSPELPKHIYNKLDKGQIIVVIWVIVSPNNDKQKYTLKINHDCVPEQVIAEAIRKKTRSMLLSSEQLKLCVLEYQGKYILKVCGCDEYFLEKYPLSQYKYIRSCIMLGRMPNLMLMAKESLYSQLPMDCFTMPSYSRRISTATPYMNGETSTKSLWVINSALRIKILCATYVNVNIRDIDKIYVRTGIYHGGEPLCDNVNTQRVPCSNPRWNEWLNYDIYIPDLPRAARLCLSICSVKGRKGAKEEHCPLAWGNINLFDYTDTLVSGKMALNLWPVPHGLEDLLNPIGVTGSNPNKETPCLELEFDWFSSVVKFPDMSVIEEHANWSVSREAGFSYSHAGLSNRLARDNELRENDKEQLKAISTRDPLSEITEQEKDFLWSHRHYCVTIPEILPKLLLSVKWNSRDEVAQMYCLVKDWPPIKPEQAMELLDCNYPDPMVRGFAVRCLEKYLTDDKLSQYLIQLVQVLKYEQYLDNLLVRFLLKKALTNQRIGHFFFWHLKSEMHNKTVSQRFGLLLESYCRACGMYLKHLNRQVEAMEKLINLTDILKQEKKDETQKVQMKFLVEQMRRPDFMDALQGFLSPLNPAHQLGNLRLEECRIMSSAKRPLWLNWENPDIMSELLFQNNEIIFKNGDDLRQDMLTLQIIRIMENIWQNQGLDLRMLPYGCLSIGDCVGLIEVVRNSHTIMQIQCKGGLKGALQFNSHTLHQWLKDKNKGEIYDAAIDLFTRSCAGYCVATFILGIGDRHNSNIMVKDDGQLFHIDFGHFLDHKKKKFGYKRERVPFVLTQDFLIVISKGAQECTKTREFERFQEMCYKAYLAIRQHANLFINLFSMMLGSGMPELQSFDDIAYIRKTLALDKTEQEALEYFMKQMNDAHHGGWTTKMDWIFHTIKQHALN

mTORC1 [6] = biological target: T1, mTORC1; assay: Inhibition of mTORC1 in human MDA-MB-468 cells assessed as measuring phosphorylated P70S6K incubated for 2 to 4 hrs by AlphaLISA assay; format: cell-based
mTORC1 [7] = biological target: T1, mTORC1; assay: Inhibition of mTORC1 in human MDA-MB-468 cells assessed as measuring phosphorylated 4EBP1 incubated for 2 to 4 hrs by AlphaLISA assay; format: cell-based
mTORC2 [8] = biological target: T2, mTORC2; assay: Inhibition of mTORC2 in human MDA-MB-468 cells assessed as measuring phosphorylated AKT incubated for 2 to 4 hrs by AlphaLISA assay; format: cell-based
mTORC1 [9] = biological target: T1, mTORC1; assay: Inhibition of mTORC1 (unknown origin) assessed as measuring phosphorylated p7OS6K level at 0.2 uM relative to control; format: protein-complex assay
mTORC1 [10] = biological target: T1, mTORC1; assay: Inhibition of mTORC1 (unknown origin) assessed as measuring phosphorylated 4EBP1 level at 1 uM relative to control; format: protein-complex assay
[11] = biological target: Peptidyl-prolyl cis-trans isomerase FKBP1A (Homo sapiens, UniProt P62942); assay: Binding affinity to FKBP12 (unknown origin) assessed as inhibition constant
Sequence of Peptidyl-prolyl cis-trans isomerase FKBP1A (P62942 whole entry): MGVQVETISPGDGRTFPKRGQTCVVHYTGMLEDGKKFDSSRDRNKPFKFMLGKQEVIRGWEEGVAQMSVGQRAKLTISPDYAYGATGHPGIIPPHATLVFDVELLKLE

T1 sequence (Q8N122 whole entry, looked up, other chains not shown): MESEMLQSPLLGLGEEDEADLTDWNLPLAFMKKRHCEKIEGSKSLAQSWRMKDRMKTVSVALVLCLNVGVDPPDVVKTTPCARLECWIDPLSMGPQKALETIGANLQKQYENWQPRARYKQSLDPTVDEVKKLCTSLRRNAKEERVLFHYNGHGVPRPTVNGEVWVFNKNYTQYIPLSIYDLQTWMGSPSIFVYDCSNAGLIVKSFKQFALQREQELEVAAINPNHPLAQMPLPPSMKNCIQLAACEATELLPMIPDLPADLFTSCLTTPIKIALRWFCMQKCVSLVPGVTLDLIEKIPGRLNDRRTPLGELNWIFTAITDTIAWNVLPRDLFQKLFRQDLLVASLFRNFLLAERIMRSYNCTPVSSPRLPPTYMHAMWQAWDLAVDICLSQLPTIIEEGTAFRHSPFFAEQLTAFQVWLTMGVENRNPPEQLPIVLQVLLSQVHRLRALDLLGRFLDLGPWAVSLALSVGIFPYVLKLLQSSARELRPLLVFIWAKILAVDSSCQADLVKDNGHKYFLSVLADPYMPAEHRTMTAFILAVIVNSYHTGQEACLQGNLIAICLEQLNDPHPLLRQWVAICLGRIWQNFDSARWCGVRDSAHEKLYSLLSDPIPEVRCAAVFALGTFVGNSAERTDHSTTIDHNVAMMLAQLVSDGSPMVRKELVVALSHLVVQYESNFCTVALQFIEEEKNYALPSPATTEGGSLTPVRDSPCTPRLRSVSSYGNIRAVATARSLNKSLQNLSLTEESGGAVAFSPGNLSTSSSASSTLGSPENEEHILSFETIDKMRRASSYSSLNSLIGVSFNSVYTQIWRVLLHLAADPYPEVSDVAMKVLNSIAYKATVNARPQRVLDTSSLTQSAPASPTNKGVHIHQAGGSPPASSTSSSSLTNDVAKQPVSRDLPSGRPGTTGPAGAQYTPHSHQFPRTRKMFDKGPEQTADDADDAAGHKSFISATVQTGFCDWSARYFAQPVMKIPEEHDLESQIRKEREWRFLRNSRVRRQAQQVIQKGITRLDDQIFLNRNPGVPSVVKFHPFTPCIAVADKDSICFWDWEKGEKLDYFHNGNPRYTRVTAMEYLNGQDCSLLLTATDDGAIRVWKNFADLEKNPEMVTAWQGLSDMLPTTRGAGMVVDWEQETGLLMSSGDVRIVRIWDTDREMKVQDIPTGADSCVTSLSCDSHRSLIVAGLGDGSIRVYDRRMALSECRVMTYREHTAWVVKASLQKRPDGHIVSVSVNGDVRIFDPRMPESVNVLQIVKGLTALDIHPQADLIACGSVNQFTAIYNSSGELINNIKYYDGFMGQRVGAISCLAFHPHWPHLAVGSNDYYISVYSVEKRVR
T1 sequence (Q9BVC4 whole entry, looked up, other chains not shown): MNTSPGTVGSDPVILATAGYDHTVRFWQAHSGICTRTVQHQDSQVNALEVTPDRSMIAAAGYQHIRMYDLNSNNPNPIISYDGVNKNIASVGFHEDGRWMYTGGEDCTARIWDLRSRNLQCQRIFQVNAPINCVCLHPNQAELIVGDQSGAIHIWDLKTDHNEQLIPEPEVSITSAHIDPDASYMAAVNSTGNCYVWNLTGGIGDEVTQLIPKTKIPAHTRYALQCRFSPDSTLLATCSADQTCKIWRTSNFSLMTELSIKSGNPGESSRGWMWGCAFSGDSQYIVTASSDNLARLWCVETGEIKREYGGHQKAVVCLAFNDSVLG

Structure (SMILES) | IC50 (mTORC1 [6]) [nM] | IC50 (mTORC1 [7]) [nM] | IC50 (mTORC2 [8]) [nM] | further results
CO[C@@H]1C[C@H](C[C@@H](C)[C@@H]2CC(=O)[C@H](C)/C=C(\C)[C@@H](O)[C@@H](OC)C(=O)[C@H](C)C[C@H](C)/C=C/C=C/C=C(\C)C(OCCO)C[C@@H]3CC[C@@H](C)[C@@](O)(O3)C(=O)C(=O)N3CCCC[C@H]3C(=O)O2)CC[C@H]1OCCCN1CCOC[C@@H]1C (stereo partly drawn) |  |  |  | IC50 (mTORC1 [1]): < 0.316 nM; IC50 (mTORC2 [2]): > 10000 nM
Nc1ncnc2c1c(-c1cc3cc(O)ccc3[nH]1)nn2C1CCOCC1 |  |  |  | IC50 (mTORC1 [3]): < 5 nM; IC50 [4]: 50 nM
Nc1ncnc2c1c(-c1cc3cccc(O)c3[nH]1)nn2C1CCOCC1 |  |  |  | IC50 (mTORC1 [3]): < 5 nM; IC50 [4]: 100 nM
Cc1cc(Oc2nc(-c3ccc(N)nc3)nc(N3CCOCC3)n2)ccc1C(=O)N(C)C |  |  |  | IC50 [5]: < 1000 nM
COc1cccc2cc(-c3nc([C@H]4CC[C@H](C(=O)NCCOCCOCCNC(=O)CCOCCOCCOCCOCCn5cc(CCCCO[C@@H]6CC[C@@H](C[C@@H](C)[C@@H]7CC(=O)[C@H](C)/C=C(\C)[C@@H](O)[C@@H](OC)C(=O)[C@H](C)C[C@H](C)C\C=C/C=C/C=C(\C)[C@@H](OC)C[C@@H]8CC[C@@H](C)[C@@](O)(O8)C(=O)C(=O)N8CCCC[C@H]8C(=O)O7)C[C@H]6OC)nn5)CC4)n4ncnc(N)c34)[nH]c12 | ≤ 1 | ≤ 3.16 | > 31.6 | 
CN(C)C(=O)c1ccc(Oc2nc(-c3cnc(N)cc3C(F)(F)F)nc(N3CCOCC3)n2)c(F)c1 |  |  |  | IC50 [5]: < 1000 nM
CO[C@H]1C[C@@H]2CC[C@@H](C)[C@@](O)(O2)C(=O)C(=O)N2CCCC[C@H]2C(=O)O[C@H]([C@H](C)C[C@@H]2CC[C@@H](OCCCN3CCOC(C)(C)C3)[C@H](OC)C2)C[C@@H](O)[C@H](C)/C=C(\C)[C@@H](O)[C@@H](OC)C(NOCC(=O)NCCOCCOCCOCCOCCOCCOCCC(=O)N2CCc3cc(Cn4nc(-c5ccc6oc(N)nc6c5)c5c(N)ncnc54)ccc3C2)[C@H](C)C[C@H](C)C\C=C/C=C/C=C/1C (stereo partly drawn) | ≤ 1 | ≤ 3.16 | 1000 | 
CO[C@H]1C[C@@H]2CC[C@@H](C)[C@@](O)(O2)C(=O)C(=O)N2CCCC[C@H]2C(=O)O[C@H]([C@H](C)C[C@@H]2CC[C@@H](OCCCN3CCOC(C)(C)C3)[C@H](OC)C2)C[C@@H](O)[C@H](C)/C=C(\C)[C@@H](O)[C@@H](OC)C(NOCC(=O)NCCOCCOCCOCCOCCOCCOCCC(=O)N2CCC(n3nc(-c4ccc5oc(N)nc5c4)c4c(N)ncnc43)CC2)[C@H](C)C[C@H](C)C\C=C/C=C/C=C/1C (stereo partly drawn) | ≤ 1 | ≤ 3.16 | 1000 | 
C[C@H]1COCCN1c1nc(Oc2ccc(C(=O)N(C)C)cc2)nc(-c2cnc(N)s2)n1 |  |  |  | IC50 [5]: < 1000 nM
COc1cccc2cc(-c3nc([C@H]4CC[C@H](C(=O)NCCOCCOCCNC(=O)CCOCCOCCOCCOCCn5cc(CCCCO[C@@H]6CC[C@@H](C[C@@H](C)[C@@H]7C[C@@H](OC)[C@H](C)/C=C(\C)[C@@H](O)[C@@H](OC)C(=O)[C@H](C)C[C@H](C)C\C=C/C=C/C=C(\C)[C@@H](OC)C[C@@H]8CC[C@@H](C)[C@@](O)(O8)C(=O)C(=O)N8CCCC[C@H]8C(=O)O7)C[C@H]6OC)nn5)CC4)n4ncnc(N)c34)[nH]c12 | ≤ 1 | ≤ 3.16 | > 31.6 | 
CNC(=O)c1cccc(-c2ccc3c(N4CCOC[C@@H]4C)nc(N4CCOc5ccccc54)nc3n2)c1 |  |  |  | inhibition (mTORC1 [9]): 87.7%; inhibition (mTORC1 [10]): 61%
CN(C)C(=O)c1ccc(Oc2nc(-c3cnc4[nH]ccc4c3)nc(N3CCOCC3)n2)c(F)c1 |  |  |  | IC50 [5]: < 1000 nM
CNC(=O)c1cc(-c2ccc3c(N4CCOC[C@@H]4C)nc(N4CCO[C@@H]5CCC[C@@H]54)nc3n2)ccc1F |  |  |  | inhibition (mTORC1 [9]): 77.5%; inhibition (mTORC1 [10]): 60.8%
CO[C@H]1C[C@@H]2CC[C@@H](C)[C@@](O)(O2)C(=O)C(=O)N2CCCC[C@H]2C(=O)O[C@H]([C@H](C)C[C@@H]2CC[C@@H](OCCCN3CCOC(C)(C)C3)[C@H](OC)C2)CC[C@H](C)/C=C(\C)[C@@H](O)[C@@H](OC)C(NOCC(=O)NCCOCCOCCOCCOCCOCCOCCC(=O)N2CCc3cc(Cn4nc(-c5ccc6oc(N)nc6c5)c5c(N)ncnc54)ccc3C2)[C@H](C)C[C@H](C)C\C=C/C=C/C=C/1C (stereo partly drawn) | ≤ 1 | ≤ 3.16 | 1000 | 
CO[C@H]1C[C@@H]2CC[C@@H](C)[C@@](O)(O2)C(=O)C(=O)N2CCCC[C@H]2C(=O)O[C@H]([C@H](C)C[C@@H]2CC[C@@H](O)[C@H](OC)C2)C[C@@H](O)[C@H](C)/C=C(\C)[C@@H](O)[C@@H](OC)/C(=N\OCc2cn(-c3cnc(N4CCN(c5ncc(C(=O)NCCOCCC(=O)NCCCCn6nc(-c7ccc8oc(N)nc8c7)c7c(N)ncnc76)cn5)CC4)nc3)nn2)[C@H](C)C[C@H](C)C\C=C/C=C/C=C/1C | ≤ 1 | ≤ 3.16 | > 31.6 | 
CO[C@H]1C[C@@H]2CC[C@@H](C)[C@@](O)(O2)C(=O)C(=O)N2CCCC[C@H]2C(=O)O[C@H]([C@H](C)C[C@@H]2CC[C@@H](OCc3cccc(-c4cnc(N5CCN(C(=O)CCc6cn(CCOCCOCCC(=O)NCCCCn7nc(-c8ccc9nc(N)oc9c8)c8c(N)ncnc87)nn6)CC5)nc4)c3)[C@H](OC)C2)CC(=O)[C@H](C)/C=C(\C)[C@@H](O)[C@@H](OC)C(=O)[C@H](C)C[C@H](C)C\C=C/C=C/C=C/1C | ≤ 1 | ≤ 3.16 | > 31.6 | 
CO[C@@H]1C[C@@H]2CC[C@@H](C)[C@@](O)(O2)C(=O)C(=O)N2CCCC[C@H]2C(=O)OC([C@H](C)C[C@@H]2CC[C@@H](O)[C@H](O)C2)C/C=C(\C)[C@@H](O)CC(=O)[C@H](C)C[C@H](C)/C=C/C=C/C=C/1C (stereo partly drawn) |  |  |  | Ki [11]: 4.2 nM
C\C1=C/C=C/C=C/[C@@H](C)C[C@@H](C)C(=O)C[C@H](O)/C(C)=C/CC([C@H](C)C[C@H]2CC[C@H](O)CC2)OC(=O)[C@@H]2CCCCN2C(=O)C(=O)[C@]2(O)O[C@@H](CC[C@H]2C)C[C@H]1O (stereo partly drawn) |  |  |  | Ki [11]: 7.7 nM
CO[C@@H]1C[C@@H]2CC[C@@H](C)[C@@](O)(O2)C(=O)C(=O)N2CCCC[C@H]2C(=O)OC([C@H](C)C[C@H]2CC[C@H](O)CC2)C/C=C(\C)[C@@H](O)CC(=O)[C@H](C)C[C@H](C)/C=C/C=C/C=C/1C (stereo partly drawn) |  |  |  | Ki [11]: 7.9 nM
C[C@H]1COC[C@H](C)N1c1nc(Oc2ccc(C(=O)N(C)C)cc2)nc(-c2cnc(N)s2)n1 |  |  |  | IC50 [5]: < 1000 nM
CO[C@@H]1C[C@@H]2CC[C@@H](C)[C@@](O)(O2)C(=O)C(=O)N2CCCC[C@H]2C(=O)OC([C@H](C)C[C@@H]2CC[C@@H](O)[C@H](OC)C2)CC(O)CC(=O)[C@H](C)/C=C(\C)[C@@H](O)CC(=O)[C@H](C)C[C@H](C)/C=C/C=C/C=C/1C (stereo partly drawn) |  |  |  | Ki [11]: 6.5 nM
CC(=O)N1CCC(n2nc(-c3cc4c(Cl)ccc(O)c4[nH]3)c3c(N)ncnc32)CC1 |  |  |  | IC50 (mTORC1 [3]): < 5 nM; IC50 [4]: 100 nM
CO[C@@H]1C[C@@H]2CC[C@@H](C)[C@@](O)(O2)C(=O)C(=O)N2CCCC[C@H]2C(=O)OC([C@H](C)C[C@@H]2CC[C@@H](O)[C@H](OC)C2)C/C=C(\C)[C@@H](O)CC(=O)[C@H](C)C[C@H](C)/C=C/C=C/C=C/1C (stereo partly drawn) |  |  |  | Ki [11]: 5.9 nM
CNC(=O)c1cccc(-c2ccc3c(N4CCOC[C@@H]4C)nc(N4CCO[C@@H]5CCCC[C@@H]54)nc3n2)c1 |  |  |  | inhibition (mTORC1 [9]): 109%; inhibition (mTORC1 [10]): 77.8%
CO[C@H]1C[C@@H]2CC[C@@H](C)[C@@](O)(O2)C(=O)C(=O)N2CCCC[C@H]2C(=O)O[C@H]([C@H](C)C[C@@H]2CC[C@@H](OCCCCc3cn(CCOCCOCCOCCOCCOCCOCCC(=O)NCCCCn4nc(-c5cccc(C(=O)NC6=NCCS6)c5)c5c(N)ncnc54)nn3)[C@H](OC)C2)CC(=O)[C@H](C)/C=C(\C)[C@@H](O)[C@@H](OC)C(=O)[C@H](C)C[C@H](C)C\C=C/C=C/C=C/1C | ≤ 1 | ≤ 3.16 | > 31.6 | 
